Experimental data taken from patent US9902714B2, “Quinoxaline derivatives useful as FGFR kinase modulators” (ASTEX THERAPEUTICS LTD, priority 2014, dated 2018).

Experiments:
VEGFR2 = VEGFR2 (Homo sapiens (Human), UniProt P35968); experiment: Enzyme binding assay (KINOMEscan) VEGFR2
FGFR4 = FGFR4 (Homo sapiens (Human), UniProt P22455); experiment: Enzyme binding assay (KINOMEscan) FGFR4
Sequence of FGFR4 (P22455 22-802): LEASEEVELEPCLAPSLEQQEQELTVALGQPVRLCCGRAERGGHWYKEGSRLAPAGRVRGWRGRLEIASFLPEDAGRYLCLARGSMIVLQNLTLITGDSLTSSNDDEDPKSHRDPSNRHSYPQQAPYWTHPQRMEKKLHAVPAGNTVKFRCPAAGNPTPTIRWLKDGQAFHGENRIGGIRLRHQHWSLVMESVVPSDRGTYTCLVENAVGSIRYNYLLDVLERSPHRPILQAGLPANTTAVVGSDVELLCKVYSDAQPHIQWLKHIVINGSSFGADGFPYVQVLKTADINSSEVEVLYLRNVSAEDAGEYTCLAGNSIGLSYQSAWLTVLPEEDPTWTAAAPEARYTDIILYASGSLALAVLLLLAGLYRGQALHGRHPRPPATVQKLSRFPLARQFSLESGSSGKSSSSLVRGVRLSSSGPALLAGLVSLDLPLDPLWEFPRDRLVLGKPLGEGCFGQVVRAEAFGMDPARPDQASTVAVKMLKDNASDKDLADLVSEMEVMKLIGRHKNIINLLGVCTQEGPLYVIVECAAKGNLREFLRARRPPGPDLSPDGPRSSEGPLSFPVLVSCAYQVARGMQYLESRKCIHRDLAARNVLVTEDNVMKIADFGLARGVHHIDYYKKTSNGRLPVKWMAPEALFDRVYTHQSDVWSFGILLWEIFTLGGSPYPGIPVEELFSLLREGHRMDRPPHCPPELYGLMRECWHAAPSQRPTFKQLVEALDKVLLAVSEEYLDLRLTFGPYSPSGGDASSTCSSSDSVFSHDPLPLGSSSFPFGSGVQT

Sequence of VEGFR2 (P35968 20-1356): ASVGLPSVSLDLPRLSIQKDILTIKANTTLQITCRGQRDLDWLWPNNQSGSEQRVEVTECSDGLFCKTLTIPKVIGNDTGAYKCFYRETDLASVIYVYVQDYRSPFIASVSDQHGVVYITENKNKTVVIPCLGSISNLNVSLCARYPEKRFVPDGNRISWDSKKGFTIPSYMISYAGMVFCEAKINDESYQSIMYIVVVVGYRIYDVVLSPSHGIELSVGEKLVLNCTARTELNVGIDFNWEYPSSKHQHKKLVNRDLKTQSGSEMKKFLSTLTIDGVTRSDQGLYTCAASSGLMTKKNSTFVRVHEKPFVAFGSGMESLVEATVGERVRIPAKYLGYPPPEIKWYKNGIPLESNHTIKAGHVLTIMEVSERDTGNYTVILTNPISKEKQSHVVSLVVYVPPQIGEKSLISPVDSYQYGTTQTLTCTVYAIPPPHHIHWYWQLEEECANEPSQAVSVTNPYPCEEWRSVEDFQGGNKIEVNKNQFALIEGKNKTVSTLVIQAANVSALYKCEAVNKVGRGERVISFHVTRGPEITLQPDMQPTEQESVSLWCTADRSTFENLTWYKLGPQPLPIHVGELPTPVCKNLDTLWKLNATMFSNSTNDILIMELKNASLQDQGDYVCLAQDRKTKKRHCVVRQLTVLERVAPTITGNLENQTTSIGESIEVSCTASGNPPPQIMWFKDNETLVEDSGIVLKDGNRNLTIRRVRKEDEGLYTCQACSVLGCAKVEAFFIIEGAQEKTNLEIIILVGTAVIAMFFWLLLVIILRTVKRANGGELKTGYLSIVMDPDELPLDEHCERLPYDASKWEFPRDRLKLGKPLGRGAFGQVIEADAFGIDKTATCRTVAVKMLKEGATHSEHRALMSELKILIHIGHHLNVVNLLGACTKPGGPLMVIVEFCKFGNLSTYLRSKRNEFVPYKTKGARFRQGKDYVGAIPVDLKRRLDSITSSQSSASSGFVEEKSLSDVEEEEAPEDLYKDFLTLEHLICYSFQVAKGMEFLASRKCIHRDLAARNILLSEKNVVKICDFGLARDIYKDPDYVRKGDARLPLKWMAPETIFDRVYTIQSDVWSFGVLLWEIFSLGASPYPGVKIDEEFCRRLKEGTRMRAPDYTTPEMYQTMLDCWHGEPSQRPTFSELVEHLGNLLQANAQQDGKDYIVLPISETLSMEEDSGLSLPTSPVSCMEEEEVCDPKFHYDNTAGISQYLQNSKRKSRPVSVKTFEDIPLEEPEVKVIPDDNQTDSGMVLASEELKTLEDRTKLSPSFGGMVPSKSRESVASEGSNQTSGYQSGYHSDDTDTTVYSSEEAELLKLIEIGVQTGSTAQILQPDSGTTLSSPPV

| Kd (VEGFR2) | Kd (FGFR4) | SMILES |
| --- | --- | --- |
| > 3000 nM | > 3000 nM | COc1cc(O)cc2c1CN(C(C)C)CCN2c1ccc2ncc(-c3cnn(C)c3)nc2c1 [Compound 4] |
| > 3000 nM | > 3000 nM | CCn1cc(-c2cnc3ccc(N4CCN(C)Cc5c(OC)cc(OC)cc54)cc3n2)cn1 [Compound 6] |
| 741 nM | 68 nM | COc1cc(OC)c2c(c1)N(c1ccc3ncc(-c4cn[nH]c4)nc3c1)CCN(C(C)C)C2 [Compound 2] |
| 1700 nM | 230 nM | CCn1cc(-c2cnc3ccc(N4CCN(C(C)C)Cc5c(OC)cc(OC)cc54)cc3n2)cn1 [Compound 7] |
| > 3000 nM | 1900 nM | COc1cc(O)c2c(c1)N(c1ccc3ncc(-c4cnn(C)c4)nc3c1)CCN(C(C)C)C2 [Compound 3] |
| 922 nM | 355 nM | COc1cc(OC)c2c(c1)N(c1ccc3ncc(-c4cnn(C)c4)nc3c1)CCCN(C(C)C)C2 [Compound 9] |
